{
  "source": "patent US20050112573A1",
  "about": "“Method of detecting toxic substance” (priority 2001, published 2005)",
  "test_system": "yeast genes (level of expressed mRNA)",
  "assay": "DNA chip analysis of expressed mRNA of yeast genes after 2 h culture with a toxic chemical substance",
  "assay_type": "cell-based, Saccharomyces cerevisiae S288C",
  "details": "for The level of expressed mRNA in the presence of chemical substance/ (ratio to absence of chemical substance): stress protein genes, DNA chip",
  "experimental": "Yeast (Saccharomyces cerevtisiae S288C (α SUC2mal mel gap2 CUP1)) were cultured at 25° C. on YPD medium (yeast extract 1%, polypepton 2%, glucose 2%). One of toxic chemical substances was added to the cell at logarithmic growth phase, and the cell was further cultured for two hours. Cell was cultured without any chemical substance in the same condition, and was used as control. Concentrations of the chemical substances were defined to inhibit the growth of the yeast but not lead to death.\nAfter the completion of cultivation, the culture was centrifuged to collect the cells. To the cells, sodium acetate buffer (50 mM sodium acetate, 10 mM EDTA, 1% SDS) was added, and the mixture was shaken at 65° C. for five minutes, followed by returning to room temperature, and obtaining the supernatant, which procedure was repeated two times. To the supernatant, ½ amount of a solution of phenol/chloroform was added, and the mixture was centrifuged to give a supernatant, which was added with an equal amount of chloroform, and the mixture was centrifuged to give a supernatant. To the supernatant, an equal amount of isopropanol containing 0.3 M sodium acetate was added, and the mixture was allowed to stand at room temperature for 30 minutes, after which the mixture was centrifuged to give a sediment of the whole RNAs. Seventy % ethanol was added to the sediment, and the mixture was again centrifuged to give a sediment, which was then dried and dissolved in water. mRNA was isolated from the whole RNAs as followings. In view of the fact that a poly A chain is attached to the 3′ terminus of mRNA, a polynucleotide having a poly T structure which was immobilized on the surface of latex beads was used to trap the mRNA, and then the mRNA was washed and eluted with spine column (Oligotex-dT30<Super>mRNA Purification Kit, Takara). Reverse transcription of the mRNA was conducted with a reverse transcriptase (Super Script II Reverse Transcriptase; catalogue No. 18064-014, GibcoBRL) using fluorescence-labeled nucleotides to give cDNAs that were introduced with Cy3-dUTP or Cy5-dUTP during the reverse transcription.\nThe labeled cDNAs were dissolved in TE buffer (10 mM Tris-HCl/1 mM EDTA, pH8.0), and the solution was dropped on the DNA chip containing the whole genes of yeast (DNA Chip Research Inc. Japan) so that the cDNAs were hybridized on the DNA chip at 65° C. for over 12 hours. The fluoresces intensity of the DNA chip was read with a scanner, and the ratio relative to the fluorescence intensity resulting from the absence of chemical substance was estimated as the following, which is shown in Tables 1 to 9: [formula]\nIn the Tables, “Intensity” indicated in the rightmost column is a value of the level of expressed mRNA of each gene in control cells as divided by the average level of the expressions of the whole genes.",
  "data": [
    {"smiles": "C=CC=O", "note": "[(14), acrolein]", "values": [
      {"measurement": "The level of expressed mRNA in the presence of chemical substance/absence: YOR267C", "setting": "gene YOR267C", "value": 0.9},
      {"measurement": "The level of expressed mRNA in the presence of chemical substance/absence: YOR325W", "setting": "gene YOR325W", "value": 1.3},
      {"measurement": "level of expressed mRNA in the presence of chemical substance/in its absence", "setting": "gene YOR336W", "value": 1.1},
      {"measurement": "level of expressed mRNA in the presence of chemical substance/in its absence", "setting": "gene YOR344C", "value": 0.6},
      {"measurement": "level of expressed mRNA in the presence of chemical substance/in its absence", "setting": "gene YOR347C", "value": 0.9},
      {"measurement": "The level of expressed mRNA in the presence of chemical substance/absence: YPL005W", "setting": "gene YPL005W", "value": 1.0},
      {"measurement": "level of expressed mRNA in the presence of chemical substance/in its absence", "setting": "gene YPL017C", "value": 1.6},
      {"measurement": "The level of expressed mRNA in the presence of chemical substance / the level in the absence of chemical substance, yeast gene YPL107W", "setting": "gene YPL107W, DNA chip fluorescence ratio to control without chemical, 2 hours culture with chemical, growth-inhibiting non-lethal concentration", "value": 1.7},
      {"measurement": "The level of expressed mRNA in the presence of chemical substance / the level in the absence of chemical substance, yeast gene YPL138C", "setting": "gene YPL138C, DNA chip fluorescence ratio to control without chemical, 2 hours culture with chemical, growth-inhibiting non-lethal concentration", "value": 1.3},
      {"measurement": "The level of expressed mRNA in the presence of chemical substance/absence: YPL150W", "setting": "gene YPL150W", "value": 1.0},
      {"measurement": "The level of expressed mRNA in the presence of chemical substance/absence: YPL151C", "setting": "gene YPL151C", "value": 0.9},
      {"measurement": "The level of expressed mRNA in the presence of chemical substance/absence: YPL152W", "setting": "gene YPL152W", "value": 1.2},
      {"measurement": "The level of expressed mRNA in the presence of chemical substance/absence: YPL168W", "setting": "gene YPL168W", "value": 1.0},
      {"measurement": "The level of expressed mRNA in the presence of chemical substance/absence: YPL180W", "setting": "gene YPL180W", "value": 1.0},
      {"measurement": "The level of expressed mRNA in the presence of chemical substance/absence: YPL188W", "setting": "gene YPL188W", "value": 1.4},
      {"measurement": "The level of expressed mRNA in the presence of chemical substance/absence: YPL221W", "setting": "gene YPL221W", "value": 0.8},
      {"measurement": "The level of expressed mRNA in the presence of chemical substance/absence: YPL225W", "setting": "gene YPL225W", "value": 1.4},
      {"measurement": "The level of expressed mRNA in the presence of chemical substance/absence: YPL249C", "setting": "gene YPL249C", "value": 1.0},
      {"measurement": "The level of expressed mRNA in the presence of chemical substance/absence: YPL260W", "setting": "gene YPL260W", "value": 1.1},
      {"measurement": "level of expressed mRNA in the presence of chemical substance/in its absence", "setting": "gene YPL265W", "value": 1.1},
      {"measurement": "level of expressed mRNA in the presence of chemical substance/in its absence", "setting": "gene YPR006C", "value": 1.2},
      {"measurement": "level of expressed mRNA in the presence of chemical substance/in its absence", "setting": "gene YPR026W", "value": 1.5},
      {"measurement": "The level of expressed mRNA in the presence of chemical substance/absence: YPR049C", "setting": "gene YPR049C", "value": 1.4},
      {"measurement": "The level of expressed mRNA in the presence of chemical substance/absence: YPR061C", "setting": "gene YPR061C", "value": 1.7},
      {"measurement": "The level of expressed mRNA in the presence of chemical substance/absence: YPR093C", "setting": "gene YPR093C", "value": 1.1},
      {"measurement": "The level of expressed mRNA in the presence of chemical substance/absence: YPR146C", "setting": "gene YPR146C", "value": 0.9},
      {"measurement": "The level of expressed mRNA in the presence of chemical substance/absence: YPR148C", "setting": "gene YPR148C", "value": 1.1},
      {"measurement": "The level of expressed mRNA in the presence of chemical substance/absence: YPR150W", "setting": "gene YPR150W", "value": 1.4},
      {"measurement": "The level of expressed mRNA in the presence of chemical substance/absence: YPR158W", "setting": "gene YPR158W", "value": 1.1},
      {"measurement": "The level of expressed mRNA in the presence of chemical substance/absence: YPR169W", "setting": "gene YPR169W", "value": 1.0},
      {"measurement": "The level of expressed mRNA in the presence of chemical substance/absence: YPR172W", "setting": "gene YPR172W", "value": 1.6},
      {"measurement": "The level of expressed mRNA in the presence of chemical substance/absence: YPR174C", "setting": "gene YPR174C", "value": 0.9},
      {"measurement": "The level of expressed mRNA in the presence of chemical substance/The level of expressed mRNA in the absence of chemical substance", "setting": "yeast gene YAR010C", "value": 1.0},
      {"measurement": "The level of expressed mRNA in the presence of chemical substance/The level of expressed mRNA in the absence of chemical substance", "setting": "yeast gene YBL005W-A", "value": 1.4},
      {"measurement": "The level of expressed mRNA in the presence of chemical substance/ (ratio to absence), gene YBL038W", "setting": "yeast gene YBL038W, mitochondria-located protein genes, 2 h culture with chemical", "value": 2.3},
      {"measurement": "The level of expressed mRNA in the presence of chemical substance/The level of expressed mRNA in the absence of chemical substance", "setting": "yeast gene YBL041W", "value": 2.0},
      {"measurement": "The level of expressed mRNA in the presence of chemical substance/The level of expressed mRNA in the absence of chemical substance", "setting": "yeast gene YBL043W", "value": 1.9},
      {"measurement": "The level of expressed mRNA in the presence of chemical substance/The level of expressed mRNA in the absence of chemical substance", "setting": "yeast gene YBL078C", "value": 3.6},
      {"measurement": "The level of expressed mRNA in the presence of chemical substance/ (ratio to absence of chemical substance)", "setting": "yeast gene YBL093C", "value": 1.0},
      {"measurement": "The level of expressed mRNA in the presence of chemical substance/ (in its absence), gene YBR036C", "setting": "yeast gene YBR036C, ratio of DNA chip fluorescence intensity to that without chemical substance", "value": 0.8},
      {"measurement": "The level of expressed mRNA in the presence of chemical substance/ (ratio to absence of chemical substance)", "setting": "yeast gene YBR044C", "value": 0.9},
      {"measurement": "The level of expressed mRNA in the presence of chemical substance/ (ratio to absence), gene YBR122C", "setting": "yeast gene YBR122C, mitochondria-located protein genes, 2 h culture with chemical", "value": 1.2},
      {"measurement": "The level of expressed mRNA in the presence of chemical substance/The level of expressed mRNA in the absence of chemical substance", "setting": "yeast gene YBR214W", "value": 0.9},
      {"measurement": "The level of expressed mRNA in the presence of chemical substance/ (ratio to absence), gene YBR251W", "setting": "yeast gene YBR251W, mitochondria-located protein genes, 2 h culture with chemical", "value": 1.6},
      {"measurement": "The level of expressed mRNA in the presence of chemical substance/ (in its absence), gene YBR298C", "setting": "yeast gene YBR298C, ratio of DNA chip fluorescence intensity to that without chemical substance", "value": 0.9},
      {"measurement": "The level of expressed mRNA in the presence of chemical substance/The level of expressed mRNA in the absence of chemical substance", "setting": "yeast gene YCL020W", "value": 1.7},
      {"measurement": "The level of expressed mRNA in the presence of chemical substance/The level of expressed mRNA in the absence of chemical substance", "setting": "yeast gene YCL027W", "value": 1.2},
      {"measurement": "The level of expressed mRNA in the presence of chemical substance/The level of expressed mRNA in the absence of chemical substance", "setting": "yeast gene YCR004C", "value": 3.7},
      {"measurement": "The level of expressed mRNA in the presence of chemical substance/ (ratio to absence), gene YCR046C", "setting": "yeast gene YCR046C, mitochondria-located protein genes, 2 h culture with chemical", "value": 1.3},
      {"measurement": "The level of expressed mRNA in the presence of chemical substance/The level of expressed mRNA in the absence of chemical substance", "setting": "yeast gene YCR071C", "value": 1.7},
      {"measurement": "The level of expressed mRNA in the presence of chemical substance/ (ratio to absence), gene YCR083W", "setting": "yeast gene YCR083W, mitochondria-located protein genes, 2 h culture with chemical", "value": 2.4},
      {"measurement": "The level of expressed mRNA in the presence of chemical substance/ (ratio to absence of chemical substance)", "setting": "yeast gene YCR083W", "value": 2.4},
      {"measurement": "The level of expressed mRNA in the presence of chemical substance/The level of expressed mRNA in the absence of chemical substance", "setting": "yeast gene YCR088W", "value": 0.9},
      {"measurement": "The level of expressed mRNA in the presence of chemical substance/The level of expressed mRNA in the absence of chemical substance", "setting": "yeast gene YDL008W", "value": 2.2},
      {"measurement": "The level of expressed mRNA in the presence of chemical substance/ in its absence, gene YDL067C", "setting": "yeast gene YDL067C, energy system protein genes, 2 h culture with the chemical, ratio to control without chemical", "value": 1.4},
      {"measurement": "The level of expressed mRNA in the presence of chemical substance/ (ratio to absence), gene YDL067C", "setting": "yeast gene YDL067C, mitochondria-located protein genes, 2 h culture with chemical", "value": 1.4},
      {"measurement": "The level of expressed mRNA in the presence of chemical substance/ in its absence, gene YDL078C", "setting": "yeast gene YDL078C, energy system protein genes, 2 h culture with the chemical, ratio to control without chemical", "value": 0.8}
    ]}
  ]
}
